Assays:
Influenza A virus [1] = experiment: microbe, parasite or virus in culture; details: A/Berlin/55/08(H1N1), MDCK, 48 h
Influenza A virus [2] = details: mdck

Row | Structure (SMILES) | EC50 (Influenza A virus [1]) [µM] | EC50 (Influenza A virus [2]) [µM]
1 | CCC(CC)O[C@@H]1C=C(C(=O)O)C[C@H](NC(C)=N)[C@H]1NC(C)=O | 4.82 | 
2 | CCC(CC)O[C@@H]1C=C(C(=O)O)C[C@H](NC(=N)N)[C@H]1NC(C)=O | 3.31 | 
3 | CCC(CC)O[C@@H]1C=C(C(=O)O)C[C@H](N)[C@H]1NC(C)=O [OSELTAMIVIR CARBOXYLATE] | > 100 | 
4 | CC(=O)N[C@H]1[C@H]([C@H](O)[C@H](O)CO)OC(C(=O)O)=C[C@@H]1NC(=N)N [ZANAMIVIR] |  | 1.22
